{"source": "paper doi:10.1101/2023.04.10.536218v2", "about": "“A novel and highly specific Forssman antigen-binding protein from sheep polyomavirus” (biorxiv, 2023)", "target": "ShPyV VP1", "conditions": "glycan coupled to BSA by reductive amination and immobilised on CM5 chip; multivalent (avidity); pH 7.4, 25 °C; kinetic fit", "data": [{"molecule": "CC(=O)N[C@H]1[C@@H](O[C@H]2[C@@H](O)[C@@H](CO)O[C@@H](O[C@H]3[C@@H](O)[C@@H](CO)O[C@H](O[C@@H]4[C@H](O)[C@@H](O)[C@H](O[C@H]5[C@H](O)[C@@H](O)C(O)O[C@@H]5CO)O[C@@H]4CO)[C@@H]3O)[C@@H]2NC(C)=O)O[C@H](CO)[C@H](O)[C@@H]1O", "note": "(stereo partly shown) [FP, Forssman pentaose]", "values": [{"measurement": "Kd", "result": 3.6, "unit": "nM"}]}]}
